Test results taken from patent publication US11382912B2, “Controlled-release preparation” (NIPPON SHINYAKU CO., LTD., priority 2017, dated 2022).

Tested on: not given
Test: not given
Details: known, NPL 1; cited from earlier work

| SMILES | Solubility |
| --- | --- |
| CC(C)N(CCCCOCC(=O)NS(C)(=O)=O)c1cnc(-c2ccccc2)c(-c2ccccc2)n1 [Compound A, 2-{4-[N-(5,6-diphenylpyrazin-2-yl)-N-isopropylamino]butyloxy}-N-(methylsulfonyl)acetamide] | depend on pH |

Biological target: PGI2 receptor (Homo sapiens, UniProt P43119)
Sequence (P43119 whole entry, species assumed): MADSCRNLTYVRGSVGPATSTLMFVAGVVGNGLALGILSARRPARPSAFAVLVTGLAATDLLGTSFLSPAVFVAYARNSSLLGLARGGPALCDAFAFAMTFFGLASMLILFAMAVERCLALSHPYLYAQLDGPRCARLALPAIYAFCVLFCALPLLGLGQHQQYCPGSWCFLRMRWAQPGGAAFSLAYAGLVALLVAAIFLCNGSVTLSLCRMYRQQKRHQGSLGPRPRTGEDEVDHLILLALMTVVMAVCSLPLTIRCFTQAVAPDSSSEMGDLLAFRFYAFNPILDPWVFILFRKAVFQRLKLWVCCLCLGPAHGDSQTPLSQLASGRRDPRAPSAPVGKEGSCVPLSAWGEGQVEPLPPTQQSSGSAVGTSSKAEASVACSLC
Test: not given
Details: known, PTL 7 to PTL 12; cited from earlier work

| SMILES | PGI2 receptor agonistic effect |
| --- | --- |
| CC(C)N(CCCCOCC(=O)NS(C)(=O)=O)c1cnc(-c2ccccc2)c(-c2ccccc2)n1 [Compound A, 2-{4-[N-(5,6-diphenylpyrazin-2-yl)-N-isopropylamino]butyloxy}-N-(methylsulfonyl)acetamide] | excellent |

Tested on: not listed separately
Test: pH of alkaline substance at 0.1 wt % in water
Assay type: physicochemical
Details: dissolved or dispersed in water at 0.1 wt %
Procedure: The pH of the alkaline substance was measured according to the following method.
The alkaline substance was dissolved (or dispersed) in water at 0.1 wt %, and the pH of the solution (or the dispersion) was determined using a pH METER HM-30R (manufactured by DKK-TOA Corporation).

| SMILES | pH |
| --- | --- |
| O=C([O-])CC(O)(CC(=O)[O-])C(=O)[O-].[Na+].[Na+].[Na+] [Trisodium citrate] | 8.3 |
| O=C([O-])[O-].[Ca+2] [Calcium carbonate] | 9.8 |
| CNC[C@H](O)[C@@H](O)[C@H](O)[C@H](O)CO [Meglumine] | 10.6 |
| O=C([O-])[O-].[Na+].[Na+] [Dried sodium carbonate] | 11.0 |
| O=C([O-])[O-].[K+].[K+] [Potassium carbonate] | 10.9 |
| O=P([O-])([O-])O.[Na+].[Na+] [Sodium hydrogen phosphate] | 9.2 |
| O=C([O-])O.[Na+] [Sodium bicarbonate] | 8.5 |
| [Ca+2].[OH-].[OH-] [Calcium hydroxide] | 12.2 |
| [O]=[Mg] [Magnesium oxide] | 10.7 |
| CC(=O)[O-].[Na+] [Sodium acetate] | 7.6 |
| [Mg+2].[OH-].[OH-] [Magnesium hydroxide] | 10.3 |
